From EP4810508A1, “ARABINOSE DERIVATIVE COMPOUND, AND COMPOSITION COMPRISING SAME FOR PREVENTING OR TREATING DEGENERATIVE BRAIN DISEASES” (Digmbio. Inc., priority 2023, dated 2025)
Like-named read-outs stand apart in the source and are kept apart here.

How the values were obtained:
male ICR mice [1] = experiment: Scopolamine-induced cognitive impairment model: passive avoidance test (PAT); assay type: in vivo; conditions: for percent recovery of memory in passive avoidance test (normal group = 100, scopolamine control = 0) at 50 mg/kg: Mus musculus, po, 168 h, read-out: in vivo(effect) PAT (%); for in vivo PAT: time staying in bright room (step-through latency), scopolamine 1 mg/kg i.p., compounds 50 mg/kg oral for 7 days, donepezil 5 mg/kg (avg.); for cognitive function recovery compared to normal animals, passive avoidance test (effect %): compounds 50 mg/kg, donepezil 5 mg/kg, orally for 7 days, scopolamine 1 mg/kg intraperitoneal
From the text: (§1) A memory loss rodent animal model induced by scopolamine intraperitoneal administration is used, and an evaluation method for memory uses a Y-maze test and a passive avoidance test (PAT). Scopolamine is a representative experimental model showing an impairment of cognitive function similar to AD patients by blocking neurotransmitters when administered to an animal as an antagonist of a muscarinic acetylcholine receptor, and as a cognitive function evaluation technique, a Y-maze test and a passive avoidance experiment, which are general and representative methods, were used, and in order to objectify the efficacy levels of the compounds, a group administered with donepezil (Aricept, Eisa) as a positive control material was separately provided to compare the efficacy levels of the compounds.
(§2) In order to evaluate cognitive function, 5-week-old male ICR mice were used, the compounds to be evaluated were prepared at a dose of 50 mg/kg/ml and repeatedly orally administered at a predetermined time for 7 days, and the positive control material was carried out at 5 mg/kg/ml. After the last administration, after 30 minutes of intraperitoneal administration of 1 mg/kg/2 ml of scopolamine, a Y-maze test and a passive avoidance test, which are cognitive function evaluations, were performed.
In addition, the passive avoidance test was conducted using an avoidance learning box (Jeondo B&P, Korea, Seoul), and the avoidance learning box is divided into a dark room and a bright room, and when a laboratory animal is put into a bright room, the subject goes beyond the dark room. At the moment, an electric shock of 0.5 mA is applied for 5 seconds, and when the next day experimental animal is put back into a bright room, an electric shock in a dark room is memorized and stay in a bright room. In this case, a step-through latency is measured to evaluate memory. The efficacy of the compounds of the present invention against the normal group and the control group in the Y-maze test and the passive avoidance test was described in the following Table 3 (Scopolamine-induced cognitive impairment model result).

male ICR mice [2] = experiment: Scopolamine-induced cognitive impairment model: Y-maze test; assay type: in vivo; conditions: for percent recovery of cognitive function (Y-maze) at 50 mg/kg: Mus musculus, po, 168 h; for in vivo Y-maze (%): spontaneous alternation, scopolamine 1 mg/kg i.p., compounds 50 mg/kg oral for 7 days, donepezil 5 mg/kg (avg.)
From the text: as §1, §2
The Y-maze test is a method for evaluating the ability to sequentially act as an experiment for measuring short-term memory. The measurement equipment is composed of three branches, each branch has a length of 42 cm, a width of 3 cm, and a height of 12 cm, and an angle at which three branches are folded is 120°. Experimental animals are put into each branch for 8 minutes, and the number of times of entering the branches to the tail of the experimental animal and the case of being sequentially received in each branch are scored (actual alternation). The alternation behavior is defined as entering not to overlap all three, and is calculated by the following equation. [formula]

HRE/Luc/HEK293 cells = experiment: HRE (Hypoxia Response Element) luciferase assay; assay type: cell-based, human; conditions: for fold induction at 10 µM / fold induction at 100 µM: Homo sapiens; for HRE assay: increase in HRE expression levels by the test substance relative to the vehicle in HRE/Luc/HEK293 cells
Outline: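 HRE-luciferase HEK293 cells in MEM/10% FBS pretreated with compound 6 h, then held under hypoxia (0.1% O2) 18 h; luminescence read after lysis. Scored as fold increase over vehicle, with twofold threshold at 100, 10 or 1 µM.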

[3] = read-out: in vivo(effect) Y-maze (%)
[4] = HEK293, fold increase of HRE expression, hypoxic conditions (O2 0.1%) 18 hours, Table 2, read-out: HRE-increasing 10uM
[5] = HEK293, fold increase of HRE expression, hypoxic conditions (O2 0.1%) 18 hours, Table 2, read-out: HRE-increasing 100uM
[6] = read-out: cognitive function recovery compared to normal animals, Y-maze experiment (effect %)

Row | SMILES | percent recovery of memory in passive avoidance test (normal group = 100, scopolamine control = 0) at 50 mg/kg (male ICR mice [1]) | in vivo PAT (male ICR mice [1]) | percent recovery of cognitive function (Y-maze) at 50 mg/kg (male ICR mice [2]; [3]) | in vivo Y-maze (%) (male ICR mice [2]) | fold induction at 10 µM (HRE/Luc/HEK293 cells; [4]) | fold induction at 100 µM (HRE/Luc/HEK293 cells; [5]) | HRE expression (HRE/Luc/HEK293 cells; concentration of 10 µM) | HRE assay (HRE/Luc/HEK293 cells) | cognitive function recovery compared to normal animals, passive avoidance test (effect %) (male ICR mice [1]) | percent recovery of cognitive function (Y-maze) at 50 mg/kg (male ICR mice [2]; [6]) | fold induction at 10 µM (HRE/Luc/HEK293 cells; HEK293, 18 h, Table 2 (Examples 37-74, 52), read-out: HKt-increasing 10uM) | fold induction at 100 µM (HRE/Luc/HEK293 cells; HEK293, 18 h, Table 2 (Examples 37-74, 52), read-out: HKt-increasing 100uM) | HRE expression (HRE/Luc/HEK293 cells; low concentration of 1 µM)
1 | Cc1ccc(Oc2ccc(O[C@H]3OC[C@H](O)[C@H](O)[C@H]3O)cc2)cc1 [Example 33, (2R,3R,4S,5S)-2-(4-(para-tolyloxy)phenoxy) tetrahydro-2H-pyran-3,4,5-triol] | 10% | 58 s | 30% | 56% | 3.8 | 2.5 | more than threefold |  |  |  |  |  | 
2 | COc1ccc(Cc2ccc(O[C@H]3O[C@@H](C)[C@@H](O)[C@@H](O)[C@@H]3O)cc2)cc1 [Example 6, (2R,3S,4R,5S,6S)-2-(4-(4-methoxybenzyl)phenoxy)-6-methyltetrahydro-2H-pyran-3,4,5-triol] | 10% | 109 s | -6% | 53% | < 1 | 1.5 |  | • |  |  |  |  | 
3 | COc1ccc(C(C)(C)c2ccc(O[C@H]3OC[C@H](O)[C@H](O)[C@H]3O)cc2)cc1 [Example 30, (2R,3R,4S,5S)-2-(4-(2-(4-methoxyphenyl)propan-2-yl)phenoxy)tetrahydro-2H-pyran-3,4,5-triol] | 60% | 194 s | 45% | 63% | 1.1 | 1.4 |  |  | ≥ 50% |  |  |  | 
4 | O[C@@H]1[C@@H](O)[C@@H](Oc2ccc(Cc3ccsc3)cc2)OC[C@@H]1O [Example 23, (2R,3R,4S,5S)-2-(4-(thiophen-3-ylmethyl)phenoxy)tetrahydro-2H-pyran-3,4,5-triol] | 22% | 87 s | 41% | 59% | 1.6 | 2.7 |  |  |  |  |  |  | 
5 | COc1ccc(Cc2ccc(O[C@H]3OC[C@H](O)[C@H](O)[C@H]3O)cc2)cc1 [Example 3, (2R,3R,4S,5S)-2-(4-(4-methoxybenzyl)phenoxy)tetrahydro-2H-pyran-3,4,5-triol] | 91% | 206 s | 59% | 61% | 1.5 | 3.1 |  | •• | 91% | 59% |  |  | 
6 | O[C@@H]1[C@@H](O)[C@@H](Oc2ccc(Cc3ccc(Cl)cc3)cc2)OC[C@@H]1O [Example 14, (2R,3R,4S,5S)-2-(4-(4-chlorobenzyl)phenoxy)tetrahydro-2H-pyran-3,4,5-triol] | 33% | 129 s | 7% | 57% | 1.9 | 2.5 |  | •• |  |  |  |  | 
7 | CCOc1ccc(C(C)(C)c2ccc(O[C@H]3OC[C@H](O)[C@H](O)[C@H]3O)cc2)cc1 [Example 31, (2R,3R,4S,5S)-2-(4-(2-(4-ethoxyphenyl)propan-2-yl)phenoxy)tetrahydro-2H-pyran-3,4,5-triol] | 65% | 204 s | 71% | 68% | 1.1 | 1.6 |  |  | ≥ 50% | ≥ 50% |  |  | 
8 | CC(C)(C)c1ccc(Oc2ccc(O[C@H]3OC[C@H](O)[C@H](O)[C@H]3O)cc2)cc1 [Example 36] | 17% | 76 s | 42% | 59% | 3.5 | < 1 | more than threefold |  |  |  |  |  | 
9 | Cc1ccc(Cc2ccc(O[C@H]3OC[C@H](O)[C@H](O)[C@H]3O)cc2)cc1 [Example 2, (2R,3R,4S,5S)-2-(4-(4-methylbenzyl)phenoxy) tetrahydro-2H-pyran-3,4,5-triol] | 25% | 134 s | 51% | 63% | 2.5 | 3.2 |  | ••• |  | ≥ 50% |  |  | 
10 | COc1ccc2cc(Cc3ccc(O[C@H]4OC[C@H](O)[C@H](O)[C@H]4O)cc3)ccc2c1 [Example 20, ((2R,3R,4S,5S)-2-(4-(6-methoxynaphthalen-2-yl)methyl)phenoxy)tetrahydro-2H-pyran-3,4,5-triol] | 38% | 142 s | 61% | 69% | 1 | 1.1 |  |  |  | ≥ 50% |  |  | 
11 | COc1cccc(Cc2ccc(O[C@H]3OC[C@H](O)[C@H](O)[C@H]3O)cc2)c1 [Example 15, (2R,3R,4S,5S)-2-(4-(3-methoxybenzyl)phenoxy)tetrahydro-2H-pyran-3,4,5-triol] | 30% | 142 s | 66% | 66% | 1.1 | 2.2 |  |  |  | ≥ 50% |  |  | 
12 | CC(C)c1ccc(Cc2ccc(O[C@H]3OC[C@H](O)[C@H](O)[C@H]3O)c(F)c2)cc1 [Example 41, (2R,3R,4S,5S)-2-(2-fluoro-4-(4-isopropylbenzyl)phenoxy)tetrahydro-2H-pyran-3,4,5-triol] | 16% | 69.6 s | 54% | 59.8% |  |  |  |  |  | ≥ 50% | 3 | 3.2 | more than threefold
13 | O[C@@H]1[C@@H](O)[C@@H](Oc2ccc(CC3CCCCC3)cc2)OC[C@@H]1O [Example 22, (2R,3R,4S,5S)-2-(4-(cyclohexylmethyl)phenoxy)tetrahydro-2H-pyran-3,4,5-triol] | 36% | 145 s | 56% | 65% | 2.5 | 2.8 |  |  |  | ≥ 50% |  |  | 
14 | CC(C)c1ccc(Cc2ccc(S[C@H]3OC[C@H](O)[C@H](O)C3O)cc2)cc1 (stereo partly drawn) [Example 27, (2R,4S,5S)-2-((4-(4-isopropylbenzyl)phenyl)thio) tetrahydro-2H-pyran-3,4,5-triol] | 28% | 80 s | 44% | 62% | 3.7 | < 1 | more than threefold |  |  |  |  |  | 
